# Assay results reported in ChEMBL document CHEMBL4602605, “Fluoroquinolones structural and medicinal developments (2013-2018): Where are we now?” (Bioorg Med Chem, 2019).
# Tests used:
# Format in all cases: functional
# [1] = system: Staphylococcus aureus; assay: Antimicrobial activity against methicillin-susceptible Staphylococcus aureus ATCC 29213 incubated for 16 hrs by CLSI method; details: ATCC 29213, 16 h
# [2] = system: Staphylococcus aureus; assay: Antimicrobial activity against healthcare-acquired methicillin-resistant Staphylococcus aureus NRS70 incubated for 16 hrs by CLSI method; details: NRS70, 16 h
# [3] = system: Escherichia coli; assay: Antimicrobial activity against Escherichia coli ATCC 9637 incubated for 24 hrs by CLSI-based broth microdilution method; details: W ATCC 9637, 24 h
# [4] = system: Pseudomonas aeruginosa; assay: Antimicrobial activity against Pseudomonas aeruginosa ATCC BAA-427 incubated for 24 hrs by CLSI-based broth microdilution method; details: ATCC BAA-427, 24 h
# [5] = system: Staphylococcus aureus; assay: Antimicrobial activity against methicillin-resistant Staphylococcus aureus ATCC 700699 incubated for 24 hrs by CLSI-based broth microdilution method; details: ATCC 700699, 24 h
# [6] = system: Staphylococcus aureus; assay: Antimicrobial activity against gentamicin-resistant Staphylococcus aureus ATCC 33592 incubated for 24 hrs by CLSI-based broth microdilution method; details: ATCC 33592, 24 h
# [7] = system: Klebsiella pneumoniae; assay: Antimicrobial activity against Klebsiella pneumoniae ATCC 27736 incubated for 24 hrs by CLSI-based broth microdilution method; details: ATCC 27736, 24 h
# [8] = system: Staphylococcus aureus; assay: Antimicrobial activity against Staphylococcus aureus ATCC 29213 incubated for 24 hrs by CLSI-based dilution method; details: ATCC 29213, 24 h
# [9] = system: Staphylococcus aureus; assay: Antimicrobial activity against Staphylococcus aureus ATCC 25923 incubated for 24 hrs by CLSI-based dilution method; details: ATCC 25923, 24 h
# [10] = system: Mycobacterium tuberculosis; assay: Antimicrobial activity against Mycobacterium tuberculosis H37Rv incubated for 10 days by microbroth dilution method; details: 240 h
# [11] = system: Pseudomonas aeruginosa; assay: Antimicrobial activity against Pseudomonas aeruginosa ATCC 43288 incubated for 18 to 24 hrs by microbroth dilution method
# [12] = system: Yersinia pseudotuberculosis; assay: Antimicrobial activity against Yersinia pseudotuberculosis ATCC 911 incubated for 18 to 24 hrs by microbroth dilution method
# [13] = system: Staphylococcus aureus; assay: Antimicrobial activity against Staphylococcus aureus ATCC 25923 incubated for 18 to 24 hrs by microbroth dilution method
# [14] = system: Enterococcus faecalis; assay: Antimicrobial activity against Enterococcus faecalis ATCC 29212 incubated for 18 to 24 hrs by microbroth dilution method
# [15] = system: Bacillus cereus; assay: Antimicrobial activity against Bacillus cereus 709 Roma incubated for 18 to 24 hrs by microbroth dilution method
# [16] = system: Mycolicibacterium smegmatis; assay: Antimicrobial activity against Mycobacterium smegmatis ATCC 607 incubated for 48 to 72 hrs by microbroth dilution method
# [17] = system: Staphylococcus aureus; assay: Antimicrobial activity against methicillin-resistant Staphylococcus aureus ATCC 25923 by microdilution method
# [18] = system: Escherichia coli; assay: Antimicrobial activity against Escherichia coli ATCC […] by microdilution method
# [19] = system: Escherichia coli; assay: Antimicrobial activity against multidrug resistance Escherichia coli ATCC 35218 by microdilution method
# [20] = system: Staphylococcus aureus; assay: Antimicrobial activity against Staphylococcus aureus ATCC 29213 by microdilution method
# [21] = system: Helicobacter pylori; assay: Antimicrobial activity against Helicobacter pylori clinical isolate 1 after 7 days by two-fold agar dilution method; details: clinical isolate 1, 168 h
# [22] = system: Helicobacter pylori; assay: Antimicrobial activity against Helicobacter pylori clinical isolate 2 after 7 days by two-fold agar dilution method; details: clinical isolate 2, 168 h
smiles,measurement,setting,value
COc1c(N2CCCCC2)c(F)cc2c(=O)c(C(=O)Nc3nccs3)cn(C3CC3)c12,MIC90,[1],> 201 µg/mL
same,MIC90,[2],> 201 µg/mL
CCn1cc(C(=O)O)c(=O)c2cc(F)c(-n3cc(CO[C@H]4O[C@H](COC(C)=O)[C@H](OC(C)=O)[C@H](OC(C)=O)[C@H]4OC(C)=O)nn3)c(F)c21,MIC,[3],12.5 µg/mL
same,MIC,[4],> 50 µg/mL
same,MIC,[5],> 50 µg/mL
same,MIC,[6],> 50 µg/mL
same,MIC,[7],> 50 µg/mL
same,MIC,[8],> 50 µg/mL
same,MIC,[9],> 50 µg/mL
COc1c(N2CC3=CCCCC3C2)c(F)cc2c(=O)c(C(=O)N3CCSC3)cn(C3CC3)c12 (stereo unspecified),MIC90,[1],6.3 µg/mL
same,MIC90,[2],6.3 µg/mL
CCO/N=C1/CN(CCCn2cc(CN3CCCC4CN(c5c(F)cc6c(=O)c(C(=O)O)cn(C7CC7)c6c5OC)CC43)nn2)c2ccc(F)cc21 (stereo unspecified),MIC,[10],12.5 µg/mL
CCn1cc(C(=O)O)c(=O)c2cc(F)c(N3CCN(Cn4nc(CN5CCN(c6ccc([N+](=O)[O-])cc6)CC5)n(-c5ccccc5)c4=O)CC3)cc21,MIC,[11],0.24 to 0.48 µg/mL
same,MIC,[12],0.03 to 0.25 µg/mL
same,MIC,[13],0.24 to 0.48 µg/mL
same,MIC,[14],0.122 µg/mL
same,MIC,[15],0.03 to 0.25 µg/mL
same,MIC,[16],0.244 to 0.25 µg/mL
CCn1cc(C(=O)O)c(=O)c2cc(F)c(-n3cc(CO[C@H]4OC[C@@H](OC(C)=O)[C@@H](OC(C)=O)[C@@H]4OC(C)=O)nn3)c(F)c21,MIC,[3],12.5 µg/mL
same,MIC,[4],> 50 µg/mL
same,MIC,[5],> 50 µg/mL
same,MIC,[6],6.25 µg/mL
same,MIC,[7],6.25 µg/mL
same,MIC,[8],6.25 µg/mL
same,MIC,[9],6.25 µg/mL
CCn1cc(C(=O)O)c(=O)c2cc(F)c(-n3cc(CO[C@H]4O[C@H](COC(C)=O)[C@@H](OC(C)=O)[C@H](OC(C)=O)[C@H]4OC(C)=O)nn3)c(F)c21,MIC,[3],> 50 µg/mL
same,MIC,[4],> 50 µg/mL
same,MIC,[5],> 50 µg/mL
same,MIC,[6],> 50 µg/mL
same,MIC,[7],> 50 µg/mL
same,MIC,[8],> 50 µg/mL
same,MIC,[9],> 50 µg/mL
COc1c(N2CCCC2)c(F)cc2c(=O)c(C(=O)Nc3nccs3)cn(C3CC3)c12,MIC90,[1],> 201 µg/mL
same,MIC90,[2],> 201 µg/mL
COc1c(F)c(F)cc2c(=O)c(C(=O)N3CCSC3)cn(C3CC3)c12,MIC90,[1],> 201 µg/mL
same,MIC90,[2],> 201 µg/mL
CN(C)N(Cn1nc2c(F)cc3c(=O)c(C(=O)O)cn(C4CC4)c3n2c1=O)N(C)C,MIC,[17],≤ 8 µg/mL
same,MIC,[18],≤ 1 µg/mL
same,MIC,[19],≤ 4 µg/mL
same,MIC,[20],≤ 2 µg/mL
COc1c(N2CC3CCCCC3C2)c(F)cc2c(=O)c(C(=O)N3CCSC3)cn(C3CC3)c12 (stereo unspecified),MIC90,[1],0.79 µg/mL
same,MIC90,[2],0.79 µg/mL
CCn1cc(C(=O)O)c(=O)c2cc(F)c(-c3cc4ccccc4oc3=O)cc21,MIC,[10],12.5 µg/mL
COc1c(N2CC3CCCCC3C2)c(F)cc2c(=O)c(C(=O)Nc3nccs3)cn(C3CC3)c12 (stereo unspecified),MIC90,[1],> 201 µg/mL
same,MIC90,[2],> 201 µg/mL
CCn1cc(C(=O)O)c(=O)c2cc(F)c(N3CCN(Cn4nc(CN5CCN(c6ccc([N+](=O)[O-])cc6)CC5)n(-c5ccc(F)cc5)c4=O)CC3)cc21,MIC,[11],0.24 µg/mL
same,MIC,[12],0.12 µg/mL
same,MIC,[13],0.48 µg/mL
same,MIC,[14],0.122 µg/mL
same,MIC,[15],0.12 µg/mL
same,MIC,[16],0.244 µg/mL
CC1CNCCN1N(Cn1nc2c(F)cc3c(=O)c(C(=O)O)cn(C4CC4)c3n2c1=O)N1CCNCC1C (stereo unspecified),MIC,[17],≤ 1 µg/mL
same,MIC,[18],≤ 0.25 µg/mL
same,MIC,[19],≤ 2 µg/mL
same,MIC,[20],≤ 0.5 µg/mL
CCn1cc(C(=O)O)c(=O)c2cc(F)c(-n3cc(CO[C@H]4OC[C@@H](OC(C)=O)[C@H](OC(C)=O)[C@H]4OC(C)=O)nn3)c(F)c21,MIC,[3],12.5 µg/mL
same,MIC,[4],> 50 µg/mL
same,MIC,[5],> 50 µg/mL
same,MIC,[6],12.5 µg/mL
same,MIC,[7],25 µg/mL
same,MIC,[8],12.5 µg/mL
same,MIC,[9],12.5 µg/mL
C[C@H]1COc2c(-c3cc4ccccc4oc3=O)c(F)cc3c(=O)c(C(=O)O)cn1c23,MIC,[10],12.5 µg/mL
CCN1CCN(N(Cn2nc3c(F)cc4c(=O)c(C(=O)O)cn(C5CC5)c4n3c2=O)N2CCN(CC)CC2)CC1,MIC,[17],≤ 0.5 µg/mL
same,MIC,[18],≤ 0.125 µg/mL
same,MIC,[19],≤ 0.25 µg/mL
same,MIC,[20],≤ 0.125 µg/mL
CCn1cc(C(=O)O)c(=O)c2cc(F)c(-n3cc(CO[C@H]4O[C@H](COC(C)=O)[C@@H](OC(C)=O)[C@H](OC(C)=O)[C@H]4NC(C)=O)nn3)c(F)c21,MIC,[3],12.5 µg/mL
same,MIC,[4],> 50 µg/mL
same,MIC,[5],> 50 µg/mL
same,MIC,[6],6.25 µg/mL
same,MIC,[7],6.25 µg/mL
same,MIC,[8],6.25 µg/mL
same,MIC,[9],6.25 µg/mL
COc1c(N2CCNCC2)c(F)cc2c(=O)c(C(=O)N3CCSC3)cn(C3CC3)c12,MIC90,[1],0.39 µg/mL
same,MIC90,[2],0.62 µg/mL
CN1CCN(N(Cn2nc3c(F)cc4c(=O)c(C(=O)O)cn(C5CC5)c4n3c2=O)N2CCN(C)CC2)CC1,MIC,[17],≤ 2 µg/mL
same,MIC,[18],≤ 0.25 µg/mL
same,MIC,[19],≤ 2 µg/mL
same,MIC,[20],≤ 0.25 µg/mL
CCn1cc(C(=O)O)c(=O)c2cc(F)c(N3CCN(Cn4nc(CN5CCN(c6ccc([N+](=O)[O-])cc6)CC5)n(-c5ccccc5)c4=S)CC3)cc21,MIC,[11],0.03 to 0.24 µg/mL
same,MIC,[12],0.06 µg/mL
same,MIC,[13],0.24 to 0.48 µg/mL
same,MIC,[14],0.122 to 0.25 µg/mL
same,MIC,[15],0.12 to 0.24 µg/mL
same,MIC,[16],0.244 to 0.25 µg/mL
CCN(CC)N(Cn1nc2c(F)cc3c(=O)c(C(=O)O)cn(C4CC4)c3n2c1=O)N(CC)CC,MIC,[17],≤ 32 µg/mL
same,MIC,[18],≤ 16 µg/mL
same,MIC,[19],≤ 32 µg/mL
same,MIC,[20],≤ 8 µg/mL
CCn1cc(C(=O)O)c(=O)c2cc(F)c(-n3cc(CO[C@H]4O[C@@H](C)[C@H](OC(C)=O)[C@@H](OC(C)=O)[C@H]4OC(C)=O)nn3)c(F)c21,MIC,[17],≤ 16 µg/mL
same,MIC,[18],≤ 4 µg/mL
same,MIC,[19],≤ 16 µg/mL
same,MIC,[20],≤ 4 µg/mL
O=C(O)c1cn(C2CC2)c2c(cc(F)c3nn(CN(N4CCCCC4)N4CCCCC4)c(=O)n32)c1=O,MIC,[17],≤ 8 µg/mL
same,MIC,[18],≤ 1 µg/mL
same,MIC,[19],≤ 4 µg/mL
same,MIC,[20],≤ 1 µg/mL
CCn1cc(C(=O)O)c(=O)c2cc(F)c(-n3cc(CO[C@H]4O[C@H](COC(C)=O)[C@@H](OC(C)=O)[C@H](OC(C)=O)[C@@H]4OC(C)=O)nn3)c(F)c21,MIC,[3],50 µg/mL
same,MIC,[4],> 50 µg/mL
same,MIC,[5],> 50 µg/mL
same,MIC,[6],12.5 µg/mL
same,MIC,[7],25 µg/mL
same,MIC,[8],12.5 µg/mL
same,MIC,[9],12.5 µg/mL
CCn1cc(C(=O)O)c(=O)c2cc(F)c(-n3cc(CO[C@H]4OC[C@@H](OC(C)=O)[C@@H](OC(C)=O)[C@H]4OC(C)=O)nn3)c(F)c21,MIC,[3],6.25 µg/mL
same,MIC,[4],> 50 µg/mL
same,MIC,[5],> 50 µg/mL
same,MIC,[6],3.12 µg/mL
same,MIC,[7],3.12 µg/mL
same,MIC,[8],3.12 µg/mL
same,MIC,[9],3.12 µg/mL
C[C@H]1COc2c(-c3cc4cc(Br)ccc4oc3=O)c(F)cc3c(=O)c(C(=O)O)cn1c23,MIC,[10],12.5 µg/mL
COc1c(N2CCOCC2)c(F)cc2c(=O)c(C(=O)Nc3nccs3)cn(C3CC3)c12,MIC90,[1],> 201 µg/mL
same,MIC90,[2],> 201 µg/mL
O=C(O)c1cn(C2CC2)c2c(cc(F)c3nn(CN(N4CCCC4)N4CCCC4)c(=O)n32)c1=O,MIC,[21],2.5 µg/mL
same,MIC,[22],0.6 µg/mL
O=C(O)c1cn(C2CC2)c2c(cc(F)c3nn(CN(N4CCOCC4)N4CCOCC4)c(=O)n32)c1=O,MIC,[17],≤ 2 µg/mL
same,MIC,[18],≤ 0.25 µg/mL
same,MIC,[19],≤ 2 µg/mL
same,MIC,[20],≤ 0.25 µg/mL
